Assay results reported in paper PMC11191095, “QSAR Reveals Decreased Lipophilicity of Polar Residues Determines the Selectivity of Antimicrobial Peptide Activity” (ACS Omega, 2024).
Where a SMILES comes first, the peptide text is derived from it.

Tests used:
Assay in all cases: microbe, parasite or virus in culture
E. coli LEC001 = format: cell-based, Escherichia coli; conditions: E. coli LEC001 (R)
Procedure, shortened: (§1)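 Peptides 128→2 μg/mL, 2-fold series; inoculum ~5 × 10^5 CFU/mL from overnight culture (OD600 0.01, mixed 1:1). MHB non-cation-adjusted for bacteria, RPMI 1640 + 2% glucose for fungi. 37 °C, 20 h, OD600. MIC50/MIC90 at 50%/90% inhibition; n ≥ 3.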

E. coli NCTC 12923 = format: cell-based, Escherichia coli; conditions: E. coli NCTC 12923 (S)
Procedure, shortened: as §1

P. aeruginosa NCTC 13437 = format: cell-based, Pseudomonas aeruginosa; conditions: P. aeruginosa NCTC 13437 (R)
Procedure, shortened: as §1

A. baumannii ATCC 17978 = format: cell-based, Acinetobacter baumannii; conditions: A. baumannii ATCC 17978 (S)
Procedure, shortened: as §1

A. baumannii AYE = format: cell-based, Acinetobacter baumannii; conditions: A. baumannii AYE (R)
Procedure, shortened: as §1

K. pneumoniae M6 = format: cell-based, Klebsiella pneumoniae; conditions: K. pneumoniae M6 (S)
Procedure, shortened: as §1

K. pneumoniae NCTC 13368 = format: cell-based, Klebsiella pneumoniae; conditions: K. pneumoniae NCTC 13368 (R)
Procedure, shortened: as §1

S. aureus (MRSA) 1199B = format: cell-based, Staphylococcus aureus; conditions: S. aureus (MRSA) 1199B (R)
Procedure, shortened: as §1

[1] = system: S. aureus (MRSA) NCTC 13616; format: cell-based, Staphylococcus aureus; conditions: S. aureus (MRSA) NCTC 13616 (R)
Procedure, shortened: as §1

[2] = system: S. aureus (MSSA) ATCC 9144; format: cell-based, Staphylococcus aureus; conditions: S. aureus (MSSA) ATCC 9144 (S)
Procedure, shortened: as §1

C. auris TDG 1912 = format: cell-based, Candida auris; conditions: C. auris TDG 1912
Procedure, shortened: as §1

C. albicans NCPF 3281 = format: cell-based; conditions: C. albicans NCPF 3281
Procedure, shortened: as §1

C. glabrata NCPF 8018 = format: cell-based; conditions: C. glabrata NCPF 8018
Procedure, shortened: as §1

C. krusei NCPF 3876 = format: cell-based; conditions: C. krusei NCPF 3876
Procedure, shortened: as §1

[3] = system: C. parapsilosis NCPF 3209; format: cell-based; conditions: C. parapsilosis NCPF 3209
Procedure, shortened: as §1

C. tropicalis NCPF 8760 = format: cell-based; conditions: C. tropicalis NCPF 8760
Procedure, shortened: as §1

[4] = MHB, 37 °C, 20 h, OD600, min. three biological repeats
[5] = 50% growth inhibition, RPMI 1640 + 2% glucose, 37 °C, 20 h
[6] = 90% growth inhibition, RPMI 1640 + 2% glucose, 37 °C, 20 h

CC[C@H](C)[C@H](NC(=O)[C@H](CCCCN)NC(=O)[C@H](CC(C)C)NC(=O)[C@H](C)NC(=O)[C@H](C)NC(=O)[C@H](CCCCN)NC(=O)[C@H](CC(C)C)NC(=O)[C@H](C)NC(=O)[C@@H](N)CCCCN)C(=O)NCC(N)=O [CPF-P3-10a] (H-KALKAALKIG-NH2)
Modal MIC (E. coli LEC001; [4]): > 128 µg/mL | Modal MIC (E. coli LEC001; shown in µM): > 122 µM | Modal MIC (E. coli NCTC 12923; MHB, ~5×10^5 CFU/mL, 37 °C, 20 h, OD600, min. three biological repeats): > 128 µg/mL | Modal MIC (E. coli NCTC 12923; shown in µM): > 122 µM | Modal MIC (P. aeruginosa NCTC 13437; [4]): > 128 µg/mL | Modal MIC (P. aeruginosa NCTC 13437; shown in µM): > 122 µM | Modal MIC (A. baumannii ATCC 17978; [4]): > 128 µg/mL | Modal MIC (A. baumannii ATCC 17978; shown in µM): > 122 µM | Modal MIC (A. baumannii AYE; [4]): > 128 µg/mL | Modal MIC (A. baumannii AYE; shown in µM): > 122 µM | Modal MIC (K. pneumoniae M6; [4]): > 128 µg/mL | Modal MIC (K. pneumoniae M6; shown in µM): > 122 µM | Modal MIC (K. pneumoniae NCTC 13368; [4]): > 128 µg/mL | Modal MIC (K. pneumoniae NCTC 13368; shown in µM): > 122 µM | Modal MIC (S. aureus (MRSA) 1199B; [4]): > 128 µg/mL | Modal MIC (S. aureus (MRSA) 1199B; shown in µM): > 122 µM | Modal MIC [1, 4]: > 128 µg/mL | Modal MIC ([1]; shown in µM): > 122 µM | Modal MIC [2, 4]: > 128 µg/mL | Modal MIC ([2]; shown in µM): > 122 µM | Modal MIC50 (C. auris TDG 1912; 50% growth inhibition, RPMI 1640 + 2% glucose, 37 °C, 20 h, OD600): > 128 µg/mL | Modal MIC90 (C. auris TDG 1912; 90% growth inhibition, RPMI 1640 + 2% glucose, 37 °C, 20 h, OD600): > 128 µg/mL | Modal MIC50 (C. auris TDG 1912; shown in µM): > 122 µM | Modal MIC90 (C. auris TDG 1912; shown in µM): > 122 µM | Modal MIC50 (C. albicans NCPF 3281; [5]): > 128 µg/mL | Modal MIC90 (C. albicans NCPF 3281; [6]): > 128 µg/mL | Modal MIC50 (C. albicans NCPF 3281; shown in µM): > 122 µM | Modal MIC90 (C. albicans NCPF 3281; shown in µM): > 122 µM | Modal MIC50 (C. glabrata NCPF 8018; [5]): > 128 µg/mL | Modal MIC90 (C. glabrata NCPF 8018; [6]): > 128 µg/mL | Modal MIC50 (C. glabrata NCPF 8018; shown in µM): > 122 µM | Modal MIC90 (C. glabrata NCPF 8018; shown in µM): > 122 µM | Modal MIC50 (C. krusei NCPF 3876; [5]): > 128 µg/mL | Modal MIC90 (C. krusei NCPF 3876; [6]): > 128 µg/mL | Modal MIC50 (C. krusei NCPF 3876; shown in µM): > 122 µM | Modal MIC90 (C. krusei NCPF 3876; shown in µM): > 122 µM | Modal MIC50 [3, 5]: > 128 µg/mL | Modal MIC90 [3, 6]: > 128 µg/mL | Modal MIC50 ([3]; shown in µM): > 122 µM | Modal MIC90 ([3]; shown in µM): > 122 µM | Modal MIC50 (C. tropicalis NCPF 8760; [5]): > 128 µg/mL | Modal MIC90 (C. tropicalis NCPF 8760; [6]): > 128 µg/mL | Modal MIC50 (C. tropicalis NCPF 8760; shown in µM): > 122 µM | Modal MIC90 (C. tropicalis NCPF 8760; shown in µM): > 122 µM
